Here are results for one compound from ChEMBL document CHEMBL6109152, “Harnessing the SPOP E3 Ubiquitin Ligase via a Bridged Proteolysis Targeting Chimera (PROTAC) Strategy for Targeted Protein Degradation” (J Med Chem, 2025).

The target of data set [1] is T1, Bromodomain-containing protein 4 (Homo sapiens, UniProt O60885). Description: Inhibition of BRD4 in human HT-29 cells assessed as decrease in c-MYC protein level by measuring fold change at 1.25 uM incubated for 24 hrs by Western blot analysis (reference value: 1.00). It counts as cell-based. (A western blot detects proteins with antibodies after separation by electrophoresis.)

Data set [2] concerns the target Speckle-type POZ protein-Bromodomain-containing protein 2 (Homo sapiens) (UniProt P25440+O43791). Description: PROTAC activity at SPOP/BRD2 in human HT-29 cells assessed as induction of BRD2 degradation by measuring fold change at 0.625 uM incubated for 24 hrs by Western blot analysis (reference value: 1.00). Format: cell-based.
Data set [3] has as its system HT-29. Description: Effect on BRD3 mRNA level in human HT-29 cells at 1 to 10 uM incubated for 24 hrs by RT-qPCR analysis. Format: functional, cell-based. The conditions noted are these: dose 1-10 µM. On the technique in general: In qPCR the cycle at which signal appears reflects the starting amount.
Data set [4] concerns the target T2, Speckle-type POZ protein-Bromodomain-containing protein 3 (Homo sapiens) (UniProt Q15059+O43791). Description: PROTAC activity at SPOP/BRD3 in human HT-29 cells assessed as induction of BRD3 degradation by measuring fold change at 1.25 uM incubated for 24 hrs by Western blot analysis (reference value: 1.00). Format: cell-based.
Data set [5] deals with T2, Speckle-type POZ protein-Bromodomain-containing protein 3 (Homo sapiens). Description: PROTAC activity at SPOP/BRD3 in human HT-29 cells assessed as induction of BRD3 degradation by measuring fold change at 5 uM incubated for 24 hrs by Western blot analysis (reference value: 1.00). It counts as cell-based.
In data set [6] the target is T3, Speckle-type POZ protein-Bromodomain-containing protein 4 (Homo sapiens, UniProt O60885+O43791). Description: PROTAC activity at SPOP/BRD4-L in human HT-29 cells assessed as induction of BRD4 long isoform degradation by measuring fold change at 0.156 uM incubated for 24 hrs by Western blotting analysis (reference value: 1.00). It counts as cell-based.
T3 sequence (O43791 whole entry, looked up, other chains not shown, canonical isoform): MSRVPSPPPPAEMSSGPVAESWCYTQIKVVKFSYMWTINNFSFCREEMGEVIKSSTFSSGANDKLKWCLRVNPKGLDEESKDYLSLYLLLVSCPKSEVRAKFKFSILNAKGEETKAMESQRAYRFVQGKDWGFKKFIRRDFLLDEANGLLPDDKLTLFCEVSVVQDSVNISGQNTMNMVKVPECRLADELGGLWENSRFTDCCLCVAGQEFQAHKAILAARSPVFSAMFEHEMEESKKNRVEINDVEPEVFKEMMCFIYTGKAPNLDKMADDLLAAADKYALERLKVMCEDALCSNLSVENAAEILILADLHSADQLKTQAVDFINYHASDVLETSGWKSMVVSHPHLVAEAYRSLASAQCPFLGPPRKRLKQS
The target in data set [7] is T1, Bromodomain-containing protein 4. Description: Inhibition of BRD4 in human HT-29 cells assessed as decrease in c-MYC protein level at 5 uM measured after 16 hrs by Western blot analysis relative to control. It counts as cell-based.
Another data set has as its system PNT2. Description: Cytotoxicity against human PNT2 assessed as reduction in cell growth at 0.021 to 10 uM incubated for 72 hrs by WST-8 reagent based assay. The conditions noted are these: pnt2, 72 h, dose 0.021-10 µM. It counts as toxicity. (In general: Tetrazolium assays rely on reduction of a dye to a coloured formazan, in cell work by metabolically active cells.)

Data set [8] has as its target T3, Speckle-type POZ protein-Bromodomain-containing protein 4. Description: PROTAC activity at SPOP/BRD4-S in human HT-29 cells assessed as induction of BRD4 short isoform degradation at 5 uM preincubated with JQ1 for 2 hrs followed by compound addition and measured after 24 hrs by Western blot analysis. It counts as cell-based.
Data set [9] has as its target T4, Histone-lysine N-methyltransferase EHMT1 (Homo sapiens, UniProt Q9H9B1).
T4 sequence (Q9H9B1 whole entry): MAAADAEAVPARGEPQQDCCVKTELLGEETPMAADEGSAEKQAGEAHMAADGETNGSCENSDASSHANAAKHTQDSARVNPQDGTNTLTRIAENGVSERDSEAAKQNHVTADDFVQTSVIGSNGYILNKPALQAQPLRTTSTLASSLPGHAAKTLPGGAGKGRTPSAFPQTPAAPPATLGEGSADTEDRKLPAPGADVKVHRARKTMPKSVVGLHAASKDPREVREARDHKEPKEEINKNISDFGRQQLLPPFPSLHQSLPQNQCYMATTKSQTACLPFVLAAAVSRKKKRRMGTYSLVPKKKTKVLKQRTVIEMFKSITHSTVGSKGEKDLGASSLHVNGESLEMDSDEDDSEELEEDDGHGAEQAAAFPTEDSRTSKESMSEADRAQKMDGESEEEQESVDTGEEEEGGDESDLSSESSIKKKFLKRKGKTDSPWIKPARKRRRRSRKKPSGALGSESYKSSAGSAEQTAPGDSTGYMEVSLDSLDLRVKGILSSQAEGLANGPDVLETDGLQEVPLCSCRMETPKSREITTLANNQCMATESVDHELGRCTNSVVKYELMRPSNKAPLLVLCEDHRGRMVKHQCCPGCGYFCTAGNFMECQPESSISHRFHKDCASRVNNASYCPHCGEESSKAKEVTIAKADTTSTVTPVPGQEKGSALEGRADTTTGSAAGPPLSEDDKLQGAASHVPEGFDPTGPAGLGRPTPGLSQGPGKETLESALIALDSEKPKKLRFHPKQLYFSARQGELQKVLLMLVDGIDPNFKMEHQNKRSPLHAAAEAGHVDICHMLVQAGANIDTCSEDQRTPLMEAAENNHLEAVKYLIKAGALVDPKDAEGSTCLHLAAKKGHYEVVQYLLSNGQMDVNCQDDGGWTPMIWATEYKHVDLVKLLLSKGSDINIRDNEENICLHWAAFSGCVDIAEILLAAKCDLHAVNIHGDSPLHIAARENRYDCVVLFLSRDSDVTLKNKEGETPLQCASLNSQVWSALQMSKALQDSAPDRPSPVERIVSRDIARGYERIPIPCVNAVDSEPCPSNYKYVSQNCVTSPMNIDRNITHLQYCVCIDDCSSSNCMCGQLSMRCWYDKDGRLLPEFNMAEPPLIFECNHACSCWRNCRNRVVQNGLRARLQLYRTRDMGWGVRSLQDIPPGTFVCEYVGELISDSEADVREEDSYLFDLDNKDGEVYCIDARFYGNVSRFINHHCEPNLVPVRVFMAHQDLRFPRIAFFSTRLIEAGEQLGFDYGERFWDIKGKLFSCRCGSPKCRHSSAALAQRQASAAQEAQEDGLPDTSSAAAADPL
Description: Binding affinity to recombinant GLP-SET domain (unknown origin) assessed as assessed as dissociation constant by ITC analysis.

For data set [10], the target named is T2, Speckle-type POZ protein-Bromodomain-containing protein 3 (Homo sapiens). Description: PROTAC activity at SPOP/BRD3 in human MDA-MB-231 cells assessed as induction of BRD3 degradation at 0.1 to 5 uM incubated for 24 hrs by Western blot analysis. Format: cell-based. The following applies: dose 0.1-5 µM.
Data set [11] addresses T3, Speckle-type POZ protein-Bromodomain-containing protein 4. Description: PROTAC activity at SPOP/BRD4-S in human HT-29 cells assessed as induction of BRD4 short isoform degradation incubated for 24 hrs by Western blotting analysis. Format: cell-based.
In data set [12] the test system is HT-29. Description: Effect on BRD2 mRNA level in human HT-29 cells at 1 to 10 uM incubated for 24 hrs by RT-qPCR analysis. It counts as functional, cell-based. The conditions noted are these: dose 1-10 µM.
Data set [13] deals with HT-29. Description: Downregulation of c-MYC mRNA level in human HT-29 cells at 5 to 10 uM incubated for 24 hrs by RT-qPCR analysis. It counts as functional, cell-based. The following applies: dose 5-10 µM.
The target of data set [14] is T3, Speckle-type POZ protein-Bromodomain-containing protein 4. Description: PROTAC activity at SPOP/BRD4-S in human HT-29 cells assessed as induction of BRD4 short isoform degradation at 5 uM preincubated with MLN4924 for 2 hrs followed by compound addition and measured after 24 hrs by Western blot analysis. It counts as cell-based.
Data set [15] has the same target. Description: PROTAC activity at SPOP/BRD4-S in human HT-29 cells assessed as induction of BRD4 short isoform degradation at 5 uM by Western blotting analysis. It counts as cell-based. The conditions noted are these: time 2-72 hrs.
Another data set concerns HEK293T. Description: Binding affinity to BRD4-L/GLP/SPOP in HEK293T cells assessed as compound-BRD4-GLP-SPOP quaternary complex formation at 20 to 100 uM incubated for 1 hrs by pulldown based Western blot analysis. Format: cell-based. The following applies: Homo sapiens, dose 20-100 µM.

pKd: −log10 of the molar value. Active and inactive are the calls of the source. No cut-off for these calls is given here.

T2 sequence (O43791 whole entry, looked up): as the sequence (O43791 whole entry, looked up, other chains not shown, canonical isoform) above
T2 sequence (Q15059 whole entry, looked up): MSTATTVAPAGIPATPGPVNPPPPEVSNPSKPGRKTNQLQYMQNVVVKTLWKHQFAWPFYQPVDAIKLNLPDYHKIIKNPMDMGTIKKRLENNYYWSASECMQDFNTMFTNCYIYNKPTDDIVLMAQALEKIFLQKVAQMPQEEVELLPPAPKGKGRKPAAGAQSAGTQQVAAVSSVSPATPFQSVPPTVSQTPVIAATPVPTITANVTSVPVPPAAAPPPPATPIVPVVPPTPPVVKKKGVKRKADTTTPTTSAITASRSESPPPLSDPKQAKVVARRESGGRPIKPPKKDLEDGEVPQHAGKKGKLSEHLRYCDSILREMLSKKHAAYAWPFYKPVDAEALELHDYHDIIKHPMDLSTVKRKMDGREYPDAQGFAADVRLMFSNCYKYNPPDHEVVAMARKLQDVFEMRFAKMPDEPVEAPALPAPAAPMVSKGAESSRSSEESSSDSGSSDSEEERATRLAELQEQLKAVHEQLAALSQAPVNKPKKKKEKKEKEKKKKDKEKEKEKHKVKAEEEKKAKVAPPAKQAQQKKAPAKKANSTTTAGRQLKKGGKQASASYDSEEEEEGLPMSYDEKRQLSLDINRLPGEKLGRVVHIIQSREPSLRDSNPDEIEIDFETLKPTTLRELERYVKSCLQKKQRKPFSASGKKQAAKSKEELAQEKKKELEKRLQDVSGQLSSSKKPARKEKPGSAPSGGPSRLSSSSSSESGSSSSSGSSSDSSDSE
Chain of Speckle-type POZ protein-Bromodomain-containing protein 2 (Homo sapiens) (O43791 whole entry, looked up): as the sequence (O43791 whole entry, looked up, other chains not shown, canonical isoform) above
Chain of Speckle-type POZ protein-Bromodomain-containing protein 2 (Homo sapiens) (P25440 whole entry, looked up): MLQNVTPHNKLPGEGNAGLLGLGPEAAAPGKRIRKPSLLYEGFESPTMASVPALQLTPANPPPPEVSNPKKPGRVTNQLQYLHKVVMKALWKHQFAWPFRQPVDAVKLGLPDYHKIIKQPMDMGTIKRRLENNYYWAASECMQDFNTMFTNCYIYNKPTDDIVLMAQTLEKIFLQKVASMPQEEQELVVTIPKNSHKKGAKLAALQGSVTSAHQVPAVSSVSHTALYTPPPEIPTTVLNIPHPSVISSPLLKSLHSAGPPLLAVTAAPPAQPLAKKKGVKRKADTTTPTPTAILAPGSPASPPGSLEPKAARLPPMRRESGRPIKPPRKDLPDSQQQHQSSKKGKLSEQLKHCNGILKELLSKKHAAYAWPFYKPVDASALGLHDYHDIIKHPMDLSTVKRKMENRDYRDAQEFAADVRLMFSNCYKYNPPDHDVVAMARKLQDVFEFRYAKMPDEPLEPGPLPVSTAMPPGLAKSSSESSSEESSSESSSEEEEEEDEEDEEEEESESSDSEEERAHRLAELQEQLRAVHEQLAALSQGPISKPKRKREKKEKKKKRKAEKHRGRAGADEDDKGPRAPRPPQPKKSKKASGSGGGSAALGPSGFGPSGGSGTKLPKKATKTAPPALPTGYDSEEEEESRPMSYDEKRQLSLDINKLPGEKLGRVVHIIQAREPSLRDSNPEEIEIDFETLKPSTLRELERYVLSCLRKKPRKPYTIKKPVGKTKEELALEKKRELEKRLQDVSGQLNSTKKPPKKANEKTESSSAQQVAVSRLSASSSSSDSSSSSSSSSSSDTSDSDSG

For orientation: inhibition means the relative decrease from the control value, in per cent. A word on the pKd: it is the Kd on a negative log10 scale, so that one unit is a factor of ten. The term DC50 denotes the midpoint of the concentration-degradation curve. On to `COc1cc2c(NC3CCN(CCCC(=O)NCCCCCCCCCCNC(=O)C[C@@H]4N=C(c5ccc(Cl)cc5)c5c(sc(C)c5C)-n5c(C)nnc54)CC3)cc(N3CCOCC3)nc2cc1OCCCN1CCCC1`, for which the fold change (FC) is 0.4 in [1]; 1.1 in data set [2]; 0.7 in [4]; 0.6 in [5]; 1.2 in data set [6]. Besides, the result (in the data set with HT-29 [3]; in [8]; in the data set on HT-29 [12]; in [14]) was inactive. Also, the inhibition in data set [7] was 100%. The results for the Activity result (in the data set on PNT2; in data set [11]; in data set [15]) were “Non-toxic”, “Dose-dependent-effect” and “Time-dependent-effect”, respectively. Besides, the pKd in data set [9] is 6.51. The result (in data set [10]; in the data set with HT-29 [13]; with HEK293T) was Active. Further, the DC50 in [11] worked out at 6.2 µM.
